In US11447503B2, “Pyridine carbamates and their use as GLUN2B receptor modulators” (JANSSEN PHARMACEUTICA NV, priority 2019, dated 2022):

target: human GluN1/GluN2B NMDA receptors (Homo sapiens, UniProt Q05586+Q13224); assay: Cell-based calcium flux (FLIPR) assay on cloned human GluN1/GluN2B ion channels expressed in mammalian cells; conditions: standard assay; glutamate ~EC40, 10 μM glycine; stable Tet-On cell line
Experimental: 5.3. Biological Assays: Effect of Compounds of Formula (I) on Cloned Human GluN1/GluN2B Ion Channels Expressed in Mammalian Cells
NMDA receptors are ion channels that are highly permeable to Ca^2+ ions, rendering it possible to monitor NMDA receptor function using cell-based calcium flux assay. In this assay, co-agonists glutamate and glycine are added to cells heterologously expressing human GluN1/GluN2B NMDA receptors to initiate cellular Ca^2+ influx. The time course of the changes in intracellular calcium is measured using a fluorescent dye and a FLIPR (Fluorometric Imaging Plate Reader) device.
Twenty four hours before measurements, the expression of the NMDA receptors in the stable cell line is induced with Tet-On inducible system in the presence of a non-selective NMDA receptor blocker. On the day of the experiment, cell culture media is carefully washed and the cells are loaded with Calcium 5 Dye Kit (Molecular Devices) in dye loading buffer containing 137 mM NaCl, 4 mM KCl, 2 mM CaCl2, 0.5 mM MgCl2 (standard assay) or 1.5 mM MgCl2 (HTS assay), 10 mM HEPES and 5 mM D-glucose; pH 7.4. After 1 h incubation at the room temperature, the dye is washed away with the assay buffer (137 mM NaCl (standard assay) or 150 mM (HTS assay), 4 mM KCl (standard assay) or 3 mM (HTS assay), 2 mM CaCl2, 0.01 mM EDTA, 10 mM HEPES and 5 mM D-glucose; pH 7.4) In the FLIPR TETRA reader, various concentrations of the test compounds are added to the cells for 5 min while fluorescence is monitored to detect potential agonist activity. Next, co-agonists, glutamate and glycine are added for another 5 minutes. The concentration of glutamate corresponding to ˜EC40 (standard assay) or EC40 (HTS assay) is used to maximize the assay's signal window and ability to detect NMDA receptor antagonists and negative allosteric modulators. A saturating concentration (10 μM) of glycine is also present in the assay. A non-selective NMDA receptor antagonist, (+)MK-801 is used as a positive control for antagonist activity. The fluorescent signal in the presence of test compounds is quantified and normalized to the signal defined by the appropriate control wells.

human GluN1/GluN2B NMDA receptors, sequence (Q13224 27-1484, other chains not shown): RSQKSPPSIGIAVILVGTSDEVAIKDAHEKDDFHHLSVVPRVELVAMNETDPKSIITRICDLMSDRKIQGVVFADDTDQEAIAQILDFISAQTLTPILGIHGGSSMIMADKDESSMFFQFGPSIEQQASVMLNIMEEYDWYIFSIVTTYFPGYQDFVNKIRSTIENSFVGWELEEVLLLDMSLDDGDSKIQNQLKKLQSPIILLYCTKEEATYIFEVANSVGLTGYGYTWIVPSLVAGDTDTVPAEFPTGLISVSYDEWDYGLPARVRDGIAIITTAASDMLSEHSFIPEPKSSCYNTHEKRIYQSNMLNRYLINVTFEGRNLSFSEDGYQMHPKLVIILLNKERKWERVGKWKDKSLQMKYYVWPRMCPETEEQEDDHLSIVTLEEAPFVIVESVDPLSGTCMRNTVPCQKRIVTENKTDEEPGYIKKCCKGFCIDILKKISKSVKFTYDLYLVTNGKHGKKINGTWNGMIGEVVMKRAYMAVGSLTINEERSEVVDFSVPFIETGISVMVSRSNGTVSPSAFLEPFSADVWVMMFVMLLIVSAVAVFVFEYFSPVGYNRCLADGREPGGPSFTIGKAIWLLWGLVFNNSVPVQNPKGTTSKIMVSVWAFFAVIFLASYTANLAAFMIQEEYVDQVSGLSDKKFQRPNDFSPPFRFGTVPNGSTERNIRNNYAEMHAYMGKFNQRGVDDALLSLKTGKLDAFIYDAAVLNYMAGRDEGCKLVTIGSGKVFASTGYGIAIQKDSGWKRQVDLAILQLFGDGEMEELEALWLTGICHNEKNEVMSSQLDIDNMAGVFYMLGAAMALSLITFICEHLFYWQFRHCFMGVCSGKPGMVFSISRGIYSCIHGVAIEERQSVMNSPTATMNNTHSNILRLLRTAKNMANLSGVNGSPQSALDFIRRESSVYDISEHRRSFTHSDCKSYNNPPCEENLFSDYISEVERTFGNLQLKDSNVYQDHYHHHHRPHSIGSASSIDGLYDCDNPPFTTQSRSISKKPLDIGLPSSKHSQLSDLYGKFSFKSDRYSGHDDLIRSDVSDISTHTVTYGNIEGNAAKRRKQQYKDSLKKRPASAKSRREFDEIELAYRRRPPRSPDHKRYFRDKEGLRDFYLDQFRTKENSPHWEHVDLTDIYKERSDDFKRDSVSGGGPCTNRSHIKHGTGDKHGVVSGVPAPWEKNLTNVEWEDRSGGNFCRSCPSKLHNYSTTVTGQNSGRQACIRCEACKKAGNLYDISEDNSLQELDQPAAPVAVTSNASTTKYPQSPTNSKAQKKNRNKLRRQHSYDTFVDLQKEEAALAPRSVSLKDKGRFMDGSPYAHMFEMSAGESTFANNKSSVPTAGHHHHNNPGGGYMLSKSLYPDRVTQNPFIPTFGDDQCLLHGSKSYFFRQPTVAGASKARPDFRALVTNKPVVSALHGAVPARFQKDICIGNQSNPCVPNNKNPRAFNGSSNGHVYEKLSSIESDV

| Structure (SMILES) | IC50 |
| --- | --- |
| CC1COC(=O)N1Cc1cncc(-c2ccc(F)c(OC(F)F)c2)c1 (racemic) [Example 5, (R/S)-3-[[5-[3-(Difluoromethoxy)-4-fluoro-phenyl]-3-pyridyl]methyl]-4-methyl-oxazolidin-2-one] | 20 nM |
| CC1CN(Cc2cncc(-c3ccc(F)c(OC(F)F)c3)c2)C(=O)O1 (racemic) [Example 6, (R/S)-3-[[5-[3-(Difluoromethoxy)-4-fluoro-phenyl]-3-pyridyl]methyl]-5-methyl-oxazolidin-2-one] | 15 nM |
| CC(C)C1CN(Cc2cncc(-c3ccc(F)c(OC(F)F)c3)c2)C(=O)O1 (racemic) [Example 14, (R/S)-3-[[5-[3-(Difluoromethoxy)-4-fluoro-phenyl]-3-pyridyl]methyl]-5-isopropyl-oxazolidin-2-one] | 97 nM |
| CC1COC(=O)N1Cc1cncc(-c2ccc(F)c(C(F)F)c2)c1 (racemic) [Example 25, (R/S)-3-[[5-[3-(Difluoromethyl)-4-fluoro-phenyl]-3-pyridyl]methyl]-4-methyl-oxazolidin-2-one] | 31 nM |
| CC1CN(Cc2cncc(-c3ccc(F)c(C(F)F)c3)c2)C(=O)O1 (racemic) [Example 26, (R/S)-3-[[5-[3-(Difluoromethyl)-4-fluoro-phenyl]-3-pyridyl]methyl]-5-methyl-oxazolidin-2-one] | 28 nM |
| CC(C)C1CN(Cc2cncc(-c3ccc(F)c(C(F)F)c3)c2)C(=O)O1 (racemic) [Example 35, (R/S)-3-[[5-[3-(Difluoromethyl)-4-fluoro-phenyl]-3-pyridyl]methyl]-5-isopropyl-oxazolidin-2-one] | 29 nM |
| CC(c1cncc(-c2ccc(F)c(C(F)F)c2)c1)N1CCCOC1=O (racemic) [Example 61, (R/S)-3-[1-[5-[3-(difluoromethyl)-4-fluoro-phenyl]-3-pyridyl]ethyl]-1,3-oxazinan-2-one] | 323 nM |
| Cc1ncc(-c2ccc(F)c(OC(F)F)c2)cc1CN1CC(C)OC1=O (racemic) [Example 80, (R/S)-3-[[5-[3-(Difluoromethoxy)-4-fluoro-phenyl]-2-methyl-3-pyridyl]methyl]-5-methyl-oxazolidin-2-one] | 22 nM |
| Cc1ncc(-c2ccc(F)c(OC(F)F)c2)cc1CN1C(=O)OCC1C (racemic) [Example 81, (R/S)-3-[[5-[3-(Difluoromethoxy)-4-fluoro-phenyl]-2-methyl-3-pyridyl]methyl]-4-methyl-oxazolidin-2-one] | 79 nM |
| Cc1ncc(-c2ccc(F)c(C(F)F)c2)cc1CN1CC(C)OC1=O (racemic) [Example 94, (R/S)-3-[[5-[3-(Difluoromethyl)-4-fluoro-phenyl]-2-methyl-3-pyridyl]methyl]-5-methyl-oxazolidin-2-one] | 21 nM |
| Cc1ncc(-c2ccc(F)c(C(F)F)c2)cc1CN1C(=O)OCC1C (racemic) [Example 95, (R/S)-3-[[5-[3-(difluoromethyl)-4-fluoro-phenyl]-2-methyl-3-pyridyl]methyl]-4-methyl-oxazolidin-2-one] | 113 nM |
| CC1CN(Cc2cncc(-c3ccc(F)c(OC(F)F)c3)c2)C(=O)O1 (single isomer, unassigned) [Example 7, (S*)-3-[[5-[3-(Difluoromethoxy)-4-fluoro-phenyl]-3-pyridyl]methyl]-5-methyl-oxazolidin-2-one] | 17 nM |
| CC1CN(Cc2cncc(-c3ccc(F)c(OC(F)F)c3)c2)C(=O)O1 (single isomer, unassigned) [Example 8, (R*)-3-[[5-[3-(Difluoromethoxy)-4-fluoro-phenyl]-3-pyridyl]methyl]-5-methyl-oxazolidin-2-one] | 11 nM |
| CC(C)C1CN(Cc2cncc(-c3ccc(F)c(OC(F)F)c3)c2)C(=O)O1 (single isomer, unassigned) [Example 15, (R*)-3-[[5-[3-(Difluoromethoxy)-4-fluoro-phenyl]-3-pyridyl]methyl]-5-isopropyl-oxazolidin-2-one] | 45 nM |
| CC(C)C1CN(Cc2cncc(-c3ccc(F)c(OC(F)F)c3)c2)C(=O)O1 (single isomer, unassigned) [Example 16, (S*)-3-[[5-[3-(Difluoromethoxy)-4-fluoro-phenyl]-3-pyridyl]methyl]-5-isopropyl-oxazolidin-2-one] | 52 nM |
| O=C1OC(CN2CCOCC2)CN1Cc1cncc(-c2ccc(F)c(OC(F)F)c2)c1 (single isomer, unassigned) [Example 18, (R*)-3-[[5-[3-(Difluoromethoxy)-4-fluoro-phenyl]-3-pyridyl]methyl]-5-(morpholinomethyl)oxazolidin-2-one] | 751 nM |
| O=C1OC(CN2CCOCC2)CN1Cc1cncc(-c2ccc(F)c(OC(F)F)c2)c1 (single isomer, unassigned) [Example 19, (S*)-3-[[5-[3-(Difluoromethoxy)-4-fluoro-phenyl]-3-pyridyl]methyl]-5-(morpholinomethyl)oxazolidin-2-one] | 1350 nM |
| C[C@@H]1CN(Cc2cncc(-c3ccc(F)c(C(F)F)c3)c2)C(=O)O1 (single isomer, unassigned) [Example 28, (R*)-3-[[5-[3-(Difluoromethyl)-4-fluoro-phenyl]-3-pyridyl]methyl]-5-methyl-oxazolidin-2-one] | 14 nM |
| CC(C)C1CN(Cc2cncc(-c3ccc(F)c(C(F)F)c3)c2)C(=O)O1 (single isomer, unassigned) [Example 36, (R*)-3-[[5-[3-(Difluoromethyl)-4-fluoro-phenyl]-3-pyridyl]methyl]-5-isopropyl-oxazolidin-2-one] | 31 nM |
| CC(C)C1CN(Cc2cncc(-c3ccc(F)c(C(F)F)c3)c2)C(=O)O1 (single isomer, unassigned) [Example 37, (S*)-3-[[5-[3-(Difluoromethyl)-4-fluoro-phenyl]-3-pyridyl]methyl]-5-isopropyl-oxazolidin-2-one] | 50 nM |
| O=C1OC(CN2CCOCC2)CN1Cc1cncc(-c2ccc(F)c(C(F)F)c2)c1 (single isomer, unassigned) [Example 40, (R*)-3-[[5-[3-(Difluoromethyl)-4-fluoro-phenyl]-3-pyridyl]methyl]-5-(morpholinomethyl)oxazolidin-2-one] | 205 nM |
| O=C1OC(CN2CCOCC2)CN1Cc1cncc(-c2ccc(F)c(C(F)F)c2)c1 (single isomer, unassigned) [Example 41, (S*)-3-[[5-[3-(Difluoromethyl)-4-fluoro-phenyl]-3-pyridyl]methyl]-5-(morpholinomethyl)oxazolidin-2-one] | 751 nM |
| Cc1ncc(-c2ccc(F)c(OC(F)F)c2)cc1CN1C(=O)OCC1C (single isomer, unassigned) [Example 82, (R*)-3-[[5-[3-(Difluoromethoxy)-4-fluoro-phenyl]-2-methyl-3-pyridyl]methyl]-4-methyl-oxazolidin-2-one] | 66 nM |
| Cc1ncc(-c2ccc(F)c(OC(F)F)c2)cc1CN1C(=O)OCC1C (single isomer, unassigned) [Example 83, (S*)-3-[[5-[3-(Difluoromethoxy)-4-fluoro-phenyl]-2-methyl-3-pyridyl]methyl]-4-methyl-oxazolidin-2-one] | 30 nM |
| Cc1ncc(-c2ccc(F)c(OC(F)F)c2)cc1CN1CC(C)OC1=O (stereo in doubt) [Example 86, (5R)-3-[[5-[3-(Difluoromethoxy)-4-fluoro-phenyl]-2-methyl-3-pyridyl]methyl]-5-methyl-oxazolidin-2-one] | 20 nM |
